The source of these data is patent publication US9376393B2, “Quinoline compounds which are anti-angiogenic integrin alpha5 beta1 inhibitors for use in the treatment of fibrosis or fibrosis-related diseases” (Clanotech AB, priority 2012, dated 2016).

Holding throughout (assay type): in vivo
Assay [1] deals with TGF-β. Briefly: Bleomycin-induced lung fibrosis mouse model: immunohistochemical localization of TGF-β. As for the experimental part:
(§1) Bleomycin-induced Lung Fibrosis Mouse Model
(§2) Thirty male CD-1 mice weighing 27.5±0.4 g were used in this study (obtained from Harlan Nossan, Milan, Italy), and were allowed access to food and water ad libitum. The mice were kept in laminar flow rooms at constant temperature and humidity with 3 animals in each cage. The temperature of the room was controlled between 20-26° C. and the humidity of the room was controlled between 40-70%.
(§3) Mice received a single intra-tracheal instillation of saline (0.9%), or saline containing bleomycin sulfate (BLM, 0.1 IU per mouse) in a volume of 100 μl. Mice were then sacrificed after 7 days by pentobarbitone overdose. […]
(§4) At 7 days after BLM administration, lung tissues were fixed in 10% PBS-buffered formaldehyde and 7 μm sections were prepared from paraffin-embedded tissues. […] Specific labeling was detected with a biotin-conjugated goat anti-rabbit IgG and avidin-biotin peroxidase complex (DBA). […]

The subject of assay [2] is bleomycin-induced lung fibrosis. Briefly: Bleomycin-induced lung fibrosis mouse model: overall outcome.
From the text: as §1
(§5) Pulmonary fibrosis is a common response to various insults to the lung and is the end-point of a numerous and heterogenous group of disorders known as interstitial lung disease (ILD), characterized by chronic inflammation and progressive fibrosis of the pulmonary interstitium. […] instillation of the anti-tumour agent bleomycin (BLM) is the most commonly used animal model for pulmonary fibrosis.
as §2
(§6) Mice received a single intra-tracheal instillation of saline (0.9%), or saline containing bleomycin sulfate (BLM, 0.1 IU per mouse) in a volume of 100 μl. Mice were then sacrificed after 7 days by pentobarbitone overdose.
(§7) Animals were randomized into three experimental groups of 10 animals in each group, and were treated with either hydroxypropyl methyl cellulose (HPMC) (0.5%)/HPbetaCyclodextrin (20%) as a 5 ml/kg s.c. injection 30 min after intra-tracheal instillation of BLM and every 12 h thereafter until completion of the study, or with the compound I-4×HCl (4-[(4-Methoxyphenyl)amino]-6-(methylcarbamoyl)quinoline-3-carboxylic acid hydrochloride) at 30 mg/kg as a s.c. injection 30 min after intra-tracheal instillation of BLM and every 12 h thereafter until completion of the study.
The levels of various fibrotic markers were measured in the three groups (A, B and C). For each marker, the level measured in the bleomycin-injured, vehicle-treated group (BLM+Vehicle) was taken as 100%. In Table 3, the corresponding marker levels for the “sham injured” group treated with vehicle (Sham+Vehicle), and the bleomycin-injured group treated with compound I-4 (BLM+I-4×HCl), are indicated as a percentage of the level in the BLM+Vehicle group.

In assay [3] the test system is Poly-ADP-ribose (PAR). In words: Bleomycin-induced lung fibrosis mouse model: immunohistochemical localization of PAR. As for the experimental part: as §1, §2, §3, §4
The test system of assay [4] is Nitrotyrosine. In words: Bleomycin-induced lung fibrosis mouse model: immunohistochemical localization of nitrotyrosine. As for the experimental part:
as §1, §2, §3, §4

Assay [5] deals with COX-2. Briefly: Bleomycin-induced lung fibrosis mouse model: immunohistochemical localization of COX-2. The protocol:
as §1, §2, §3, §4

Assay [6] concerns iNOS. Briefly: Bleomycin-induced lung fibrosis mouse model: immunohistochemical localization of iNOS. The protocol:
as §1, §2, §3, §4

Assay [7] relates to Thiobarbituric acid-reactant substances (TBARS). In words: Bleomycin-induced lung fibrosis mouse model: thiobarbituric acid-reactant substances in lung. Particulars: percentage of the level in the BLM+Vehicle group (100%); 30 mg/kg s.c. every 12 h; 7 days after BLM. The protocol:
as §1, §2, §3
Thiobarbituric acid-reactant substances (TBARS) measurement, which is considered a good indicator of lipid peroxidation, was determined in the lung tissues collected at 7 days after BLM administration. […] The absorbance of the supernatant was measured spectrophotometrically at […]. Levels of TBARS are expressed as μM/100 mg of wet tissue.

Assay [8] concerns lung oedema. In words: Bleomycin-induced lung fibrosis mouse model: measurement of lung oedema. As for the experimental part:
as §1, §2, §3
The wet lung weight was measured 7 days after BLM injection by careful excision of the lung from other adjacent extraneous tissues. The lung was then exposed for 48 h to 180° C. and the dry weight measured. Water content was then calculated by subtracting the dry weight from the wet weight.

The subject of assay [9] is IL-1β. In words: Bleomycin-induced lung fibrosis mouse model: measurement of cytokines, IL-1β. Particulars: percentage of the level in the BLM+Vehicle group (100%); 30 mg/kg s.c. every 12 h; 7 days after BLM. The protocol:
as §1, §2, §6, §7
(§8) TNF-α and IL-1β levels were evaluated from lung tissues collected at 7 days after BLM administration. […]

Assay [10] deals with TNF-α. Briefly: Bleomycin-induced lung fibrosis mouse model: measurement of cytokines, TNF-α. Particulars: percentage of the level in the BLM+Vehicle group (100%); 30 mg/kg s.c. every 12 h; 7 days after BLM. The protocol: as §1, §2, §6, §7, §8
A short description of assay [11]: Bleomycin-induced lung fibrosis mouse model: observations, body weight. As to conditions: 30 mg/kg 30 min after intra-tracheal BLM and every 12 h thereafter. The protocol:
as §1, §2, §3
At the time of routine monitoring, the animals were checked for any effects of acute lung injury and treatments on normal behavior such as mobility, food and water consumption (by looking only), body weight gain/loss (body weights were measured daily), eye/hair matting and any other abnormal effect. Death and observed clinical signs were recorded on the basis of the numbers of animals within each subset.

Assay [12] concerns bleomycin-induced lung fibrosis. In words: Bleomycin-induced lung fibrosis mouse model: histological examination, scoring for lung fibrosis. Also on record: key to Histological fibrosis score / Histological fibrosis score, Mean: 0 = normal lung, 8 = total fibrous obliteration of fields.
From the text: as §1, §5, §2, §6, §7
Lung biopsies were taken 7 days after BLM injection. After fixation at room temperature in buffered formaldehyde solution (10% in phosphate buffered saline [PBS]), the sections were prepared and stained by haematoxylin-eosin and observed with an Axiovision Zeiss microscope (Milan, Italy).
Scoring for lung fibrosis was graded on a scale from 0 to 8 by examining randomly chosen sections, with 5 fields per sample at a magnification of ×100. Criteria for grading lung fibrosis were as follows: grade 0, normal lung; grade 1, minimal fibrous thickening of alveolar or bronchiolar walls; grade 3, moderate thickening of walls without obvious damage to lung architecture; grade 5, increased fibrosis with definite damage to lung structure and formation of fibrous bands or small fibrous masses; grade 7, severe distortion of structure and large fibrous areas; and grade 8, total fibrous obliteration of fields (Cuzzocrea S, et al. Am J Physiol Lung Cell Mol Physiol. (2007) 292:L1095-104).
All data in the text are presented as mean±s.e. mean of n observations, where n represents the number of animals studied. All statistical analysis was calculated using GraphPad Prism 5 (GraphPad Software, San Diego, Calif., USA). Data without repeated measurements were assessed by a Mann-Whitney U t-test. Data with repeated measurements were assessed by a two-way ANOVA followed by a Bonferroni post-hoc test. A P-value of less than 0.05 was considered to be statistically significant.

Assay [13] deals with Myeloperoxidase (MPO). Briefly: Bleomycin-induced lung fibrosis mouse model: myeloperoxidase (MPO) assay in lung. As to conditions: percentage of the level in the BLM+Vehicle group (100%); 30 mg/kg s.c. every 12 h; 7 days after BLM. The protocol:
as §1, §2, §3
Myeloperoxidase (MPO) activity was determined 7 days after BLM injection. […] The rate of change in absorbance was measured spectrophotometrically at 650 nm. MPO activity was defined as the quantity of enzyme degrading 1 μmol of peroxide per min at 37° C. and was expressed in units per gram weight of wet tissue.

Where [14] appears, read: BLM-injured mice treated with compound, compared with sham group.
The mark [15] stands for this setting: 30 mg/kg 30 min after intra-tracheal BLM and every 12 h thereafter.
Where [16] appears, read: percentage of the level in the BLM+Vehicle group (100%), 30 mg/kg s.c. every 12 h, 7 days after BLM.

“And” between values parts separate entries of the source, which are not always exact repeats. Equal entries are not always repeated. Structures can show the parent of a compound that is named as a salt.

As for `CNC(=O)c1ccc2ncc(C(=O)O)c(Nc3ccc(OC)cc3)c2c1` [Compound I-4, 4-[(4-Methoxyphenyl)amino]-6-(methylcarbamoyl)quinoline-3-carboxylic acid], in assay [1] (setting [14]), the “TGF-β level versus sham group (in words)” value was “reduced to levels similar to those of the sham group”. Also, the “levels of the markers induced by bleomycin (in words)” value in assay [2] (all markers of Table 3, versus BLM+Vehicle) was “statistically significantly reduced”. In addition, in assay [2] (conclusion from Tables 2 and 3), the “overall effect in the bleomycin model (in words)” value is “potent anti-fibrotic and ant-inflammatory effect”. Moreover, the “poly-ADP-ribose (PAR) level versus sham group (in words)” value in assay [3] (setting [14]) is listed as “reduced to levels similar to those of the sham group”. The “Nitrotyrosine level versus sham group (in words)” value in [4] (setting [14]) is given as “reduced to levels similar to those of the sham group”. The “COX-2 level versus sham group (in words)” value in assay [5] (setting [14]) is “reduced to levels similar to those of the sham group”. In addition, in assay [6] (setting [14]), the “iNOS level versus sham group (in words)” value is “reduced to levels similar to those of the sham group”.
Turning to `CNC(=O)c1ccc2ncc(C(=O)O)c(Nc3ccc(OC)cc3)c2c1` [I-4 × HCl, 4-[(4-Methoxyphenyl)amino]-6-(methylcarbamoyl)quinoline-3-carboxylic acid hydrochloride], in assay [7], the “Lung TBARS levels” value is 45%. The “lung oedema (in words)” value in assay [8] (setting [15]) is given as “significant attenuation”. Further, in [8] (setting [16]), the “Wet/dry weight ratio (oedema)” value was found to be 52%. In addition, in [1] (setting [16]), the “TGF-β (immunohistochemical localization)” value is given as 0.1%. In addition, the “Lung IL-1β levels” value in assay [9] is reported as 50%. Further, the “lung inflammation (in words)” value in assay [2] (setting [15]) is reported as “significant attenuation”. Moreover, in assay [10], the “Lung TNF-α levels” value is 45%. Besides, in assay [3] (setting [16]), the “Poly-ADP-ribose (PAR) (immunohistochemical localization)” value turned out to be 0.1%. The “weight loss (in words)” value in assay [11] is “significant attenuation”. Also, in assay [4] (setting [16]), the “Nitrotyrosine (immunohistochemical localization)” value turned out to be 0.1%. In assay [12] (setting [15]), the “acute lung injury (in words)” value is on record as “significant attenuation” and the “histological scoring of fibrosis (in words)” value is recorded as “significant attenuation”. In assay [12] (group mean of 10 mice, BLM-injured CD-1 mice, 30 mg/kg s.c. 30 min after BLM and every 12 h, 7 days after BLM, scale from 0 to 8), the “Histological fibrosis score, Mean” value amounted to 2.40. In addition, the Histological fibrosis score in [12] (individual mice 1-10, BLM-injured CD-1 mice, 30 mg/kg s.c. 30 min after BLM and every 12 h, 7 days after BLM, scale from 0 to 8, hydrochloride, 30 mg/kg) was 2.0 (4×) and 3.0 (5×) and 1.0. The “Histological score for lung acute injury” value in assay [12] (setting [16]) is on record as 33%. For the same molecule, the “COX-2 (immunohistochemical localization)” value in assay [5] (setting [16]) is 0.1%. The “Lung myeloperoxidase (MPO)” value in assay [13] is 47%. Also, the “iNOS (immunohistochemical localization)” value in assay [6] (setting [16]) was 0.1%.
